# Assay results reported in patent US3945994A, “Novel acid compounds” (Gist-Brocades N.V., priority 1973, dated 1976).
# How the values were obtained:
# Format in all cases: cell-based
# [1] = test system: Streptococcus haemolyticus A 266; conditions: A266, agar serial dilution, 24 hours at 37°C
# [2] = test system: Streptococcus faecalis L 80; conditions: Enterococcus faecalis, L80; agar serial dilution, 24 hours at 37°C
# Proteus morganii 2241 = conditions: Morganella morganii, agar serial dilution, 24 hours at 37°C
# [3] = test system: Salmonella typhimurium R 127; conditions: Salmonella enterica, agar serial dilution, 24 hours at 37°C
# Proteus mirabilis A 1200 = conditions: A1200, agar serial dilution, 24 hours at 37°C
# [4] = test system: Bacillus subtilis ATCC 6633; conditions: ATCC6633, agar serial dilution, 24 hours at 37°C
# [5] = test system: Pseudomonas aeruginosa H 10; conditions: H10, agar serial dilution, 24 hours at 37°C
# [6] = test system: Staphylococcus aureus A 2000; conditions: A2000, agar serial dilution, 24 hours at 37°C
# [7] = test system: Pseudomonas aeruginosa 2396; conditions: agar serial dilution, 24 hours at 37°C
# Proteus rettgeri A 821 = conditions: Providencia rettgeri, A821; agar serial dilution, 24 hours at 37°C
# [8] = test system: Staphylococcus aureus A 321; conditions: A321, agar serial dilution, 24 hours at 37°C
# [9] = test system: Pasteurella multocida A 723; conditions: A723, agar serial dilution, 24 hours at 37°C
# [10] = test system: Staphylococcus aureus A 355'; conditions: agar serial dilution, 24 hours at 37°C
# [11] = test system: Pseudomonas aeruginosa Wyeth A 1058; conditions: WYETHA1058, agar serial dilution, 24 hours at 37°C
# Escherichia coli U 20 = conditions: U20, agar serial dilution, 24 hours at 37°C
# [12] = test system: Klebsiella pneumoniae A 809; conditions: A809, agar serial dilution, 24 hours at 37°C
# [13] = test system: Staphylococcus aureus A 2001; conditions: A2001, agar serial dilution, 24 hours at 37°C
# Proteus mirabilis H 3 = conditions: H3, agar serial dilution, 24 hours at 37°C
# [14] = test system: Diplococcus pneumoniae L 54; conditions: Streptococcus pneumoniae, L54; agar serial dilution, 24 hours at 37°C
# Salmonella dublin P 43 = conditions: Salmonella enterica, P43; agar serial dilution, 24 hours at 37°C
Compound,MIC [1],MIC [2],MIC (Proteus morganii 2241),MIC [3],MIC (Proteus mirabilis A 1200),MIC [4],MIC [5],MIC [6],MIC [7],MIC (Proteus rettgeri A 821),MIC [8],MIC [9],MIC [10],MIC [11],MIC (Escherichia coli U 20),MIC [12],MIC [13],MIC (Proteus mirabilis H 3),MIC [14],MIC (Salmonella dublin P 43)
"CC(C)NS(=O)(=O)NC(=O)N[C@@H](C(=O)N[C@@H]1C(=O)N2[C@@H]1SC(C)(C)[C@@H]2C(=O)O)c1ccccc1 [IX, D-6-[α-{3-(isopropylaminosulfonyl)-ureido}-benzylcarbonamido]-penicillanic acid]",0.75 µg/mL,25 µg/mL,100 µg/mL,50 µg/mL,6 µg/mL,1.5 µg/mL,> 100 µg/mL,25 µg/mL,> 100 µg/mL,0.75 µg/mL,1.5 µg/mL,0.5 µg/mL,25 µg/mL,> 100 µg/mL,25 µg/mL,100 µg/mL,–,–,–,–
"CCOS(=O)(=O)NC(=O)N[C@@H](C(=O)N[C@@H]1C(=O)N2[C@@H]1SC(C)(C)[C@@H]2C(=O)O)c1ccccc1 [VI, D-6-[α-{3-(ethoxysulfonyl)-ureido}-benzylcarbonamido]-penicillanic acid]",0.25 µg/mL,25 µg/mL,> 100 µg/mL,25 µg/mL,1.5 µg/mL,0.25 µg/mL,100 µg/mL,12.5 µg/mL,25 µg/mL,1.5 µg/mL,1.5 µg/mL,> 100 µg/mL,50 µg/mL,25 µg/mL,12.5 µg/mL,> 100 µg/mL,6 µg/mL,12.5 µg/mL,6 µg/mL,6 µg/mL
"CC(C)N(C(C)C)S(=O)(=O)NC(=O)N[C@@H](C(=O)N[C@@H]1C(=O)N2[C@@H]1SC(C)(C)[C@@H]2C(=O)O)c1ccccc1 [VIII, D-6-[α-{3-(diisopropylaminosulfonyl)-ureido}-benzylcarbonamido]-penicillanic acid]",0.25 µg/mL,6 µg/mL,100 µg/mL,100 µg/mL,50 µg/mL,1 µg/mL,100 µg/mL,–,50 µg/mL,25 µg/mL,1 µg/mL,6 µg/mL,–,50 µg/mL,25 µg/mL,25 µg/mL,6 µg/mL,100 µg/mL,1 µg/mL,25 µg/mL
"CC1(C)S[C@@H]2[C@H](NC(=O)[C@H](NC(=O)NS(=O)(=O)Nc3cccnc3)c3ccccc3)C(=O)N2[C@H]1C(=O)O [XI, D-6-[α-{3-(pyrid-3-ylaminosulfonyl)-ureido}-benzylcarbonamido]-penicillanic acid]",0.12 µg/mL,6 µg/mL,> 100 µg/mL,> 100 µg/mL,–,0.25 µg/mL,> 100 µg/mL,–,50 µg/mL,3 µg/mL,3 µg/mL,0.5 µg/mL,–,50 µg/mL,> 100 µg/mL,> 100 µg/mL,–,< 0.75 µg/mL,0.25 µg/mL,50 µg/mL
"Cc1cc(NS(=O)(=O)NC(=O)N[C@@H](C(=O)N[C@@H]2C(=O)N3[C@@H]2SC(C)(C)[C@@H]3C(=O)O)c2ccccc2)no1 [XII, D-6-[α-{3-(5-methylisoxazol-3-yl-aminosulfonyl)-ureido}-benzylcarbonamido]-penicillanic acid]",1.5 µg/mL,25 µg/mL,50 µg/mL,25 µg/mL,1.5 µg/mL,1.5 µg/mL,100 µg/mL,25 µg/mL,25 µg/mL,6 µg/mL,3 µg/mL,1.5 µg/mL,25 µg/mL,25 µg/mL,25 µg/mL,50 µg/mL,12.5 µg/mL,6 µg/mL,–,12.5 µg/mL
"CC1(C)S[C@@H]2[C@H](NC(=O)[C@H](NC(=O)NS(=O)(=O)N3CCOCC3)c3ccccc3)C(=O)N2[C@H]1C(=O)O [XIV, D-6-[α-{3-(morpholino-sulfonyl)-ureido}-benzylcarbonamido]-penicillanic acid]",3 µg/mL,25 µg/mL,100 µg/mL,100 µg/mL,3 µg/mL,1.5 µg/mL,100 µg/mL,25 µg/mL,50 µg/mL,1.5 µg/mL,6 µg/mL,0.25 µg/mL,25 µg/mL,100 µg/mL,50 µg/mL,100 µg/mL,12.5 µg/mL,6 µg/mL,–,50 µg/mL
"CC1(C)S[C@@H]2[C@H](NC(=O)[C@H](NC(=O)NS(N)(=O)=O)c3ccccc3)C(=O)N2[C@H]1C(=O)O [XVI, D-6-[α-{3-(aminosulfonyl)-ureido}-benzylcarbonamido]-penicillanic acid]",0.12 µg/mL,6 µg/mL,> 100 µg/mL,> 100 µg/mL,25 µg/mL,0.5 µg/mL,> 100 µg/mL,25 µg/mL,50 µg/mL,25 µg/mL,3 µg/mL,0.5 µg/mL,25 µg/mL,50 µg/mL,100 µg/mL,> 100 µg/mL,6 µg/mL,50 µg/mL,–,100 µg/mL
"CC1(C)S[C@@H]2[C@H](NC(=O)[C@H](NS(N)(=O)=O)c3ccccc3)C(=O)N2[C@H]1C(=O)O [XVIII, D-6-[α-(aminosulfonylamino)-benzylcarbonamido]-penicillanic acid]",0.06 µg/mL,1.5 µg/mL,25 µg/mL,12.5 µg/mL,6 µg/mL,0.5 µg/mL,> 100 µg/mL,6 µg/mL,50 µg/mL,1.5 µg/mL,0.5 µg/mL,0.5 µg/mL,12.5 µg/mL,> 100 µg/mL,12.5 µg/mL,> 100 µg/mL,3 µg/mL,12.5 µg/mL,–,6 µg/mL
